Data reported in ChEMBL document CHEMBL3879889, “Compositions and methods for treating cancer” (2009).
pIC50: −log10 of the molar value. Active and inactive are the calls of the source. No cut-off for these calls is given here.

Tests used:
HeLa = assay: Induction of morphological changes in HPV18 E6 transformed human HeLa cells assessed as cell shrinkage at 80 to 120 uM after 24 hrs; type: functional, cell-based
[1] = Cytotoxicity against HPV E6 transformed human HeLa cells assessed as cell viability at 60 uM treated 24 hrs post plating by WST-1 assay relative to control; type: functional; conditions: read-out: Activity
[2] = Upregulation of p53 expression in HPV18 E6 transformed human HeLa cells at 80 to 120 uM after 24 hrs by immunocytochemical analysis relative to control; type: functional, cell-based
[3] = Cytotoxicity against HPV E6 transformed human SiHa cells assessed as cell viability at 60 uM treated 24 hrs post plating by WST-1 assay relative to control; type: functional; conditions: read-out: Activity
[4] = Downregulation of E6 protein expression in HPV18 E6 transformed human HeLa cells at 60 to 120 uM after 24 hrs by Western blot method; type: functional, cell-based
[5] = Inhibition of HPV E6 protein interaction with Tip1 (unknown origin)
[6] = Inhibition of HPV E6 protein interaction with PSD95 PDZ domain1 (unknown origin)
[7] = Inhibition of HPV E6 protein interaction with PSD95 PDZ domain3 (unknown origin)
[8] = Inhibition of HPV E6 protein interaction with shank1 (unknown origin)
3Y1 [9] = assay: Antiproliferative activity in rat 3Y1 cells transfected with pBLAST E6-16 at 40 uM after 24 to 96 hrs; type: functional, cell-based
3Y1 [10] = assay: Antimigratory activity in rat 3Y1 cells transfected with pBLAST E6-16 at 40 uM after 24 hrs; type: functional, cell-based
[11] = Inhibition of HPV E6 protein interaction with MAGI-1 PDZ domain1 (unknown origin)
[12] = Antiproliferative activity in rat 3Y1 cells transfected with pBLAST at 40 uM after 24 to 96 hrs; type: cell-based; conditions: 3y1, 40 µM
[13] = Inhibition of HPV E6 protein interaction with PSD95 PDZ domain2 (unknown origin)
[14] = Cytotoxicity against HPV negative human C33A assessed as cell viability at 60 uM treated 24 hrs post plating by WST-1 assay relative to control; set-up: species or system C-33-A; conditions: C33A cells (HPV negative), read-out: Activity

CCc1cccc2c(C(c3ccccc3OCC(=O)O)c3c[nH]c4c(CC)cccc34)c[nH]c12
Activity (HeLa): Active | viability at 60 µM [1]: 70.1% | Activity [2]: Active | viability at 60 µM [3]: 74.3% | Activity [4]: Active | pIC50 [5]: < 3.60 | pIC50 [6]: < 3.60 | pIC50 [7]: < 3.60 | pIC50 [8]: < 3.60 | Activity (3Y1 [9]): Active | Activity (3Y1 [10]): Active | pIC50 [11]: 4.06 | Activity [12]: Non-Toxic | pIC50 [13]: < 3.60 | viability at 24 h, 60 µM [14]: 104%
